From ChEMBL document CHEMBL4359901, “Cyclic enaminone as new chemotype for selective cyclooxygenase-2 inhibitory, anti-inflammatory, and analgesic activities” (Eur J Med Chem, 2019)

What was measured:
[1] = Antioxidant activity assessed as DPPH radical scavenging activity at 100 uM/ml incubated for 20 mins by spectrophotometric method relative to control; format: functional
Rattus norvegicus [2] = experiment: Antiinflammatory activity in Sprague-Dawley rat model of carrageenan-induced thermal hyperalgesia assessed as paw withdrawal latency pressure at 50 mg/kg, po administered 1 hr prior to carrageenan challenge and measured after 2 hrs by Von-frey test (reference value: 146.47 +/- 5.12 g); format: functional
Rattus norvegicus [3] = experiment: Antiinflammatory activity in Wistar albino rat assessed as reduction in carrageenan-induced paw edema at 25 mg/kg, ip measured after 2 hrs by plethysmometric method (reference value: 1.58 +/- 0.21 ml); format: functional
Rattus norvegicus [4] = experiment: Antiinflammatory activity in Wistar albino rat assessed as reduction in carrageenan-induced paw volume at 12.5 mg/kg, ip measured after 3 hrs by plethysmometric method (reference value: 1.75 +/- 0.33 ml); format: functional
Rattus norvegicus [5] = experiment: Antiinflammatory activity in Sprague-Dawley rat model of carrageenan-induced thermal hyperalgesia assessed as paw withdrawal latency pressure at 30 mg/kg, po administered 1 hr prior to carrageenan challenge and measured after 1 hr by Randall-Selitto test (reference value: 246.55 +/- 1.05 g); format: functional
Rattus norvegicus [6] = experiment: Antiinflammatory activity in Sprague-Dawley rat model of carrageenan-induced thermal hyperalgesia assessed as paw withdrawal latency pressure at 50 mg/kg, po administered 1 hr prior to carrageenan challenge and measured after 1 hr by Randall-Selitto test (reference value: 246.55 +/- 1.05 g); format: functional
Rattus norvegicus [7] = experiment: Antiinflammatory activity in Sprague-Dawley rat model of carrageenan-induced thermal hyperalgesia assessed as paw withdrawal latency pressure at 50 mg/kg, po administered 1 hr prior to carrageenan challenge and measured after 3 hrs by Von-frey test (reference value: 146.61 +/- 1.58 g); format: functional
Rattus norvegicus [8] = experiment: Antiinflammatory activity in Wistar albino rat assessed as reduction in carrageenan-induced paw volume at 12.5 mg/kg, ip measured after 1 hr by plethysmometric method (reference value: 1.43 +/- 0.19 ml); format: functional
Rattus norvegicus [9] = experiment: Antiinflammatory activity in Sprague-Dawley rat model of carrageenan-induced thermal hyperalgesia assessed as paw withdrawal latency time at 30 mg/kg, po administered 1 hr prior to carrageenan challenge and measured after 3 hrs by planter test (reference value: 4.13 +/- 0.45 sec); format: functional
Rattus norvegicus [10] = experiment: Antiinflammatory activity in Wistar albino rat assessed as reduction in carrageenan-induced paw edema at 25 mg/kg, ip measured after 3 hrs by plethysmometric method (reference value: 1.75 +/- 0.33 ml); format: functional
[11] = target: Prostaglandin G/H synthase 1 (Ovis aries) (UniProt P05979); experiment: Inhibition of ovine COX1 assessed as reduction in PGF2alpha at 10 uM incubated for 2 mins using arachidonic acid as substrate by ELISA relative to control
Rattus norvegicus [12] = experiment: Antiinflammatory activity in Sprague-Dawley rat model of carrageenan-induced thermal hyperalgesia assessed as paw withdrawal latency time at 30 mg/kg, po administered 1 hr prior to carrageenan challenge and measured after 4 hrs by planter test (reference value: 5.47 +/- 0.84 sec); format: functional
Rattus norvegicus [13] = experiment: Antiinflammatory activity in Sprague-Dawley rat model of carrageenan-induced thermal hyperalgesia assessed as paw withdrawal latency time at 50 mg/kg, po administered 1 hr prior to carrageenan challenge and measured after 3 hrs by planter test (reference value: 4.13 +/- 0.45 sec); format: functional
Rattus norvegicus [14] = experiment: Antiinflammatory activity in Sprague-Dawley rat model of carrageenan-induced thermal hyperalgesia assessed as paw withdrawal latency pressure at 30 mg/kg, po administered 1 hr prior to carrageenan challenge and measured after 2 hrs by Von-frey test (reference value: 146.47 +/- 5.12 g); format: functional
Rattus norvegicus [15] = experiment: Analgesic activity in Wistar albino rat assessed as reaction time at 25 mg/kg, ip measured after 120 mins for 15 secs by hot plate method (reference value: 4.32 +/- 0.52 sec); format: functional
[16] = Cardiotoxicity in Sprague-Dawley rat assessed as DBP rate at 50 mg/kg; format: toxicity, organism-based; settings: in vivo
Rattus norvegicus [17] = experiment: Antiinflammatory activity in Sprague-Dawley rat model of carrageenan-induced thermal hyperalgesia assessed as paw withdrawal latency time at 30 mg/kg, po administered 1 hr prior to carrageenan challenge and measured after 2 hrs by planter test (reference value: 6.17 +/- 0.58 sec); format: functional
Rattus norvegicus [18] = experiment: Analgesic activity in Wistar albino rat assessed as reaction time at 25 mg/kg, ip measured after 30 mins for 15 secs by hot plate method (reference value: 4.21 +/- 0.41 sec); format: functional
[19] = Ulcerogenicity in Sprague-Dawley rat assessed as formation of ulcer at 30 mg/kg, po after 1 hr by microscopic analysis; format: toxicity, organism-based; settings: in vivo
[20] = Antioxidant activity assessed as DPPH radical scavenging activity at 20 uM/ml incubated for 20 mins by spectrophotometric method relative to control; format: functional
[21] = Antioxidant activity assessed as DPPH radical scavenging activity at 60 uM/ml incubated for 20 mins by spectrophotometric method relative to control; format: functional
[22] = Antioxidant activity assessed as DPPH radical scavenging activity at 10 uM/ml incubated for 20 mins by spectrophotometric method relative to control; format: functional
Rattus norvegicus [23] = experiment: Antiinflammatory activity in Sprague-Dawley rat model of carrageenan-induced thermal hyperalgesia assessed as paw withdrawal latency pressure at 30 mg/kg, po administered 1 hr prior to carrageenan challenge and measured after 1 hr by Von-frey test (reference value: 159.88 +/- 4.66 g); format: functional
Rattus norvegicus [24] = experiment: Antiinflammatory activity in Sprague-Dawley rat model of carrageenan-induced thermal hyperalgesia assessed as paw withdrawal latency pressure at 30 mg/kg, po administered 1 hr prior to carrageenan challenge and measured after 3 hrs by Von-frey test (reference value: 31.65 +/- 3.33 g); format: functional
Rattus norvegicus [25] = experiment: Antiinflammatory activity in Sprague-Dawley rat model of carrageenan-induced thermal hyperalgesia assessed as paw withdrawal latency pressure at 30 mg/kg, po administered 1 hr prior to carrageenan challenge and measured after 5 hrs by Randall-Selitto test (reference value: 224.08 +/- 7.12 g); format: functional
Rattus norvegicus [26] = experiment: Analgesic activity in Wistar albino rat assessed as reaction time at 12.5 mg/kg, ip measured after 30 mins for 15 secs by hot plate method (reference value: 4.21 +/- 0.41 sec); format: functional
Rattus norvegicus [27] = experiment: Antiinflammatory activity in Sprague-Dawley rat model of carrageenan-induced thermal hyperalgesia assessed as paw withdrawal latency pressure at 30 mg/kg, po administered 1 hr prior to carrageenan challenge and measured after 5 hrs by Von-frey test (reference value: 169.58 +/- 4.26 g); format: functional
[28] = Ulcerogenicity in Sprague-Dawley rat assessed as formation of lesions at 30 mg/kg, po after 1 hr by microscopic analysis; format: toxicity, organism-based; settings: in vivo
Rattus norvegicus [29] = experiment: Antiinflammatory activity in Sprague-Dawley rat model of carrageenan-induced thermal hyperalgesia assessed as paw withdrawal latency time at 50 mg/kg, po administered 1 hr prior to carrageenan challenge and measured after 4 hrs by planter test (reference value: 5.47 +/- 0.84 sec); format: functional

Structure (SMILES): CC(=O)N(C1=CC(=O)CCC1)c1ccc(Cl)cc1
- Activity [1]: 96.2%
- Activity (Rattus norvegicus [2]): 168.03 g
- Activity (Rattus norvegicus [3]): 1.2 mL
- Activity (Rattus norvegicus [4]): 1.18 mL
- Activity (Rattus norvegicus [5]): 261.72 g
- Activity (Rattus norvegicus [6]): 272.83 g
- Activity (Rattus norvegicus [7]): 169.23 g
- Activity (Rattus norvegicus [8]): 1.3 mL
- Time (Rattus norvegicus [9]): 6.95 s
- Activity (Rattus norvegicus [10]): 1.11 mL
- inhibition [11]: 10.8%
- Time (Rattus norvegicus [12]): 6.67 s
- Time (Rattus norvegicus [13]): 8.38 s
- Activity (Rattus norvegicus [14]): 157.83 g
- Time (Rattus norvegicus [15]): 11.58 s
- Activity [16]: Non-Toxic
- Time (Rattus norvegicus [17]): 8.01 s
- Time (Rattus norvegicus [18]): 6.86 s
- Activity [19]: Non-Toxic
- Activity [20]: 22.4%
- Activity [21]: 65.3%
- Activity [22]: 6.18%
- Activity (Rattus norvegicus [23]): 166.7 g
- Activity (Rattus norvegicus [24]): 152.92 g
- Activity (Rattus norvegicus [25]): 264.48 g
- Time (Rattus norvegicus [26]): 6.16 s
- Activity (Rattus norvegicus [27]): 161.8 g
- Activity [28]: Non-Toxic
- Time (Rattus norvegicus [29]): 9.58 s
